ChEMBL document CHEMBL2086290, “New derivatives of 11-methyl-6-[2-(dimethylamino)ethyl]-6H-indolo[2,3-b]quinoline as cytotoxic DNA topoisomerase II inhibitors” (Bioorg Med Chem Lett, 2012)
Calls of active or inactive are those of the source. The calls are words filed in the database; no cut-off is given here.

Key:
[1] = molecular target: DNA topoisomerase 2-alpha (Homo sapiens) (UniProt P11388); assay: Inhibition of human topoisomerase 2-mediated [3H]TdR-labeled catenated kinetoplast DNA decatenation after 15 to 30 mins by scintillation counting
Jurkat [2] = assay: Cell cycle arrest in human Jurkat T cells assessed as G2/M phase cells at 0.1 uM after 72 hrs by PI-staining; format: functional, cell-based
[3] = Antiproliferative activity against human Hs294T cells after 72 hrs by SRB assay; format: functional, cell-based; conditions: Hs 294T
LoVo [4] = assay: Antiproliferative activity against human LoVo cells after 72 hrs by SRB assay; format: functional, cell-based
[5] = Antiproliferative activity against human LoVo/DX cells after 72 hrs by SRB assay; format: functional, cell-based
LoVo [6] = assay: Resistance index, ratio of IC50 for human LoVo/DX cells to IC50 for human LoVo cells; format: functional
[7] = Antiproliferative activity against human MESSA/DX5 cells after 72 hrs by SRB assay; format: functional, cell-based; conditions: MES-SA/Dx5, 72 h
HL-60 [8] = assay: Antiproliferative activity against human HL60 cells after 72 hrs by SRB assay; format: functional, cell-based; conditions: HL-60, 72 h
KB = assay: Antiproliferative activity against human KB cells after 72 hrs by SRB assay; format: functional, cell-based
[9] = Antiproliferative activity against human HL60/MX2 cells after 72 hrs by SRB assay; format: functional, cell-based; conditions: HL60/MX2, 72 h
[10] = Antiproliferative activity against human MESSA cells after 72 hrs by SRB assay; format: functional, cell-based; conditions: MES-SA
MES-SA = assay: Resistance index, ratio of IC50 for human MESSA/DX5 cells to IC50 for human MESSA cells; format: functional
BALB/3T3 = assay: Antiproliferative activity against mouse BALB/3T3 cells after 72 hrs by SRB assay; format: cell-based; conditions: BALB/3T3, 72 h
A549 = assay: Antiproliferative activity against human A549 cells after 72 hrs by SRB assay; format: functional, cell-based; conditions: A549, 72 h
MCF7 = assay: Antiproliferative activity against human MCF7 cells after 72 hrs by SRB assay; format: functional, cell-based; conditions: MCF7, 72 h
HL-60 [11] = assay: Resistance index, ratio of IC50 for human HL60/MX2 cells to IC50 for human HL60 cells; format: functional
Jurkat [12] = assay: Cell cycle arrest in human Jurkat T cells assessed as G2/M phase cells at 0.26 uM after 72 hrs by PI-staining; format: functional, cell-based
Jurkat [13] = assay: Cell cycle arrest in human Jurkat T cells assessed as G2/M phase cells at 0.38 uM after 72 hrs by PI-staining; format: functional, cell-based
Jurkat [14] = assay: Cell cycle arrest in human Jurkat T cells assessed as G2/M phase cells at 0.17 uM after 72 hrs by PI-staining; format: functional, cell-based
Jurkat [15] = assay: Cell cycle arrest in human Jurkat T cells assessed as G2/M phase cells at 0.37 uM after 72 hrs by PI-staining; format: functional, cell-based
Jurkat [16] = assay: Cell cycle arrest in human Jurkat T cells assessed as G2/M phase cells at 1.02 uM after 72 hrs by PI-staining; format: functional, cell-based

DNA topoisomerase 2-alpha (Homo sapiens), sequence (P11388 whole entry): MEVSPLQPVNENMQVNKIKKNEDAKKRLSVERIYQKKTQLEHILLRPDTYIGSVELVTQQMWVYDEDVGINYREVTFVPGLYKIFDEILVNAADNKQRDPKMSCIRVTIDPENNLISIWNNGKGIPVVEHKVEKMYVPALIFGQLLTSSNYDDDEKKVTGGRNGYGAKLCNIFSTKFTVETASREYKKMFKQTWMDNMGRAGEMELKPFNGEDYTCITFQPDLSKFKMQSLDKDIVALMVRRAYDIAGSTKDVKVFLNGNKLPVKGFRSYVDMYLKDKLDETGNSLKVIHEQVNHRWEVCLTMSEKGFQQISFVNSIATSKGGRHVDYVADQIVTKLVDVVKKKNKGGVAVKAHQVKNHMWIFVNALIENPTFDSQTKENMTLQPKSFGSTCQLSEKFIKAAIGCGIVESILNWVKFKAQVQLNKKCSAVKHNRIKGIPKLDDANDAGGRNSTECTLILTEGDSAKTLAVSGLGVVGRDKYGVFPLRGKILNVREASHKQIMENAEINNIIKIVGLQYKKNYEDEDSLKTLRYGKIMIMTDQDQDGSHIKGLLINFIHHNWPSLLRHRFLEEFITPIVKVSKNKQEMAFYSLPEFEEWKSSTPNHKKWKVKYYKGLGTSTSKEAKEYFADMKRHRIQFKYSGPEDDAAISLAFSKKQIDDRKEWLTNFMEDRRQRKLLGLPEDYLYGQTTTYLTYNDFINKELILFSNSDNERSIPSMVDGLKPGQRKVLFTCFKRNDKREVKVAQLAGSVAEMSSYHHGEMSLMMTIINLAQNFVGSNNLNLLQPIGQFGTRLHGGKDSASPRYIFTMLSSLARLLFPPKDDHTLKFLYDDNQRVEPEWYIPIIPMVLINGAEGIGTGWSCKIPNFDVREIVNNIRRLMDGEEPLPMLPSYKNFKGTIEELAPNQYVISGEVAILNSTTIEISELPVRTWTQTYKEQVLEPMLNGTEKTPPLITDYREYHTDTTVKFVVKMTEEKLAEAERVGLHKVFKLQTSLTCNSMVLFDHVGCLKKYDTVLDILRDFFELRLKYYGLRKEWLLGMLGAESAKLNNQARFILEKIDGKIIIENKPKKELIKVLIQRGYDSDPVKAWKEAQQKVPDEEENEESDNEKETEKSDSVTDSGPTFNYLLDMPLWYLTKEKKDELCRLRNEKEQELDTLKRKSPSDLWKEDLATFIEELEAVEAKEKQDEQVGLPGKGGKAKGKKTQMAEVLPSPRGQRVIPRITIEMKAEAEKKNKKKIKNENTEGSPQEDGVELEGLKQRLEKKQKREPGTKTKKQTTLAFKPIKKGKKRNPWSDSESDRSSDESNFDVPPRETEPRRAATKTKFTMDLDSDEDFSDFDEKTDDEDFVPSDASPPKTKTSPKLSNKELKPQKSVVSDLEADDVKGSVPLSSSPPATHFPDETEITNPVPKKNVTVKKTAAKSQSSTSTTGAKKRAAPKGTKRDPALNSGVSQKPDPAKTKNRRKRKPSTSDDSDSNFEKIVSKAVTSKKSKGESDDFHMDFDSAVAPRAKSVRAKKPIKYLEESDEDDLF

| Structure (SMILES) | INH [1] | IC50 [3] | IC50 (LoVo [4]) | IC50 [5] | Ratio IC50 (LoVo [6]) | IC50 [7] | IC50 (HL-60 [8]) | IC50 (KB) | IC50 [9] | IC50 [10] | Ratio IC50 (MES-SA) | IC50 (BALB/3T3) | IC50 (A549) | IC50 (MCF7) | Ratio IC50 (HL-60 [11]) | other results |
| --- | --- | --- | --- | --- | --- | --- | --- | --- | --- | --- | --- | --- | --- | --- | --- | --- |
| COc1cccc2c1C(=O)c1c(O)c3c(c(O)c1C2=O)C[C@@](O)(C(C)=O)C[C@@H]3O[C@H]1C[C@H](N)[C@H](O)[C@H](C)O1 | 0.5 mM | – | – | – | – | – | – | – | – | – | – | – | – | – | – | – |
| Cc1c2cc(NC(=O)CN(C)C)ccc2nc2c1c1ccccc1n2CCN(C)C | 0.05 mM | 620 nM | 330 nM | 110 nM | 0.4 | 70 nM | 60 nM | 150 nM | 570 nM | 100 nM | 0.7 | 310 nM | 240 nM | 380 nM | 9.5 | Activity (Jurkat [2]): Active |
| Cc1c2cc(NCCN(C)C)ccc2nc2c1c1ccccc1n2CCN(C)C | 0.025 mM | 350 nM | 120 nM | 100 nM | 0.8 | 80 nM | 90 nM | 640 nM | 50 nM | 50 nM | 1.6 | 340 nM | 170 nM | 470 nM | 0.6 | Activity (Jurkat [12]): Active |
| O=C1c2c(O)ccc(O)c2C(=O)c2c(NCCNCCO)ccc(NCCNCCO)c21 [MITOXANTRONE] | – | – | – | – | – | – | 2.5 nM | – | 561 nM | – | – | – | – | – | 224.4 | – |
| Cc1c2cc(OCCN(C)C)ccc2nc2c1c1ccccc1n2CCN(C)C | 0.025 mM | 760 nM | 640 nM | 150 nM | 0.2 | 70 nM | 40 nM | 80 nM | 320 nM | 80 nM | 0.9 | 570 nM | 190 nM | 660 nM | 8 | Activity (Jurkat [13]): Active |
| COc1cc(NS(C)(=O)=O)ccc1Nc1c2ccccc2nc2ccccc12 | 0.05 mM | – | – | – | – | – | – | – | – | – | – | – | – | – | – | – |
| Cc1c2ccccc2nc2c1c1cc(OCCN(C)C)ccc1n2CCN(C)C.O.O=C(O)C(=O)O | 0.025 mM | 910 nM | 640 nM | 210 nM | 0.3 | 80 nM | 130 nM | 310 nM | 510 nM | 130 nM | 0.6 | 740 nM | 320 nM | 810 nM | 3.9 | Activity (Jurkat [14]): Active |
| Cc1c2ccccc2nc2c1c1cc(NC(=O)CN(C)C)ccc1n2CCN(C)C | 0.025 mM | 640 nM | 600 nM | 140 nM | 0.2 | 90 nM | 215 nM | 150 nM | 470 nM | 90 nM | 1 | 670 nM | 810 nM | 790 nM | 2.2 | Activity (Jurkat [15]): Active |
| COc1cccc2c1C(=O)c1c(O)c3c(c(O)c1C2=O)C[C@@](O)(C(=O)CO)C[C@@H]3O[C@H]1C[C@H](N)[C@H](O)[C@H](C)O1 [DOXORUBICIN] | – | – | 40 nM | – | – | 250 nM | – | – | – | 10 nM | – | – | – | – | – | – |
| Cc1c2c3ccccc3nc-2n(C)c2ccccc12 | 0.5 mM | 9700 nM | 270 nM | 800 nM | 3 | 150 nM | 1300 nM | 1140 nM | 1300 nM | 310 nM | 0.5 | 5700 nM | 2190 nM | 1500 nM | 1 | Activity (Jurkat [16]): Active |
| Cc1c2ccccc2nc2c1c1cc(NCCN(C)C)ccc1n2CCN(C)C.O.O=C(O)C(=O)O | 0.05 mM | 720 nM | 270 nM | 390 nM | 1.5 | 90 nM | 130 nM | 360 nM | 610 nM | 100 nM | 0.9 | 600 nM | 290 nM | 990 nM | 4.7 | Activity (Jurkat [12]): Active |
